Laboratory results: US12465591B2, “Use of carbamate compound for preventing, alleviating or treating diabetic peripheral neuropathy or chemotherapy-induced peripheral neuropathy” (SK BIOPHARMACEUTICALS CO., LTD., priority 2018, dated 2025)

Experiments:
[1] = system: streptozotocin (STZ)-induced diabetic peripheral neuropathic pain rat model (mechanical allodynia); experiment: von Frey test of mechanical allodynia in streptozotocin (STZ)-induced diabetic peripheral neuropathic pain rat model; format: in vivo, rat (Sprague-Dawley); conditions: for bending force before administration: day 24, immediately before that day's dose
Protocol: (§1) Male rats (Sprague-Dawley, 160 to 180 g, Harlan Laboratories, Israel) were purchased and subjected to acclimatization for more than 1 week at an animal laboratory. The experimental animals were maintained at a light-and-darkness cycle of 12 hours, a temperature of 20 to 24° C., a relative humidity of 40 to 60%, and free access to water and food.
(§2) The degree of pain was assessed by withdrawal (avoidance response) using von Frey filaments. Mechanical stimuli were applied to the right hind paw by the use of an up-down method, and the lowest bending force showing avoidance response was defined as the paw withdrawal threshold (J Neurosci Methods, 1994; 53 (1): 55-63). First, the rats were placed in an acrylic box (13×25×13 cm^3) located on a wire mesh installed at a height of about 35 cm from the floor and stabilized for more than 20 minutes. Among von Frey filaments with various bending forces (0.008, 0.02, 0.04, 0.07, 0.16, 0.4, 0.6, 1.0, 1.4, 2.0, 4.0, 6.0, 8.0, 10.0, 15.0, 26.0, 60.0, 100, 180 and 300 g), the stimulus was started with 2.0 g of filament. The stimulus was applied to the extent of slightly bending in the direction perpendicular to the plantar surface, and the rats were stimulated with a filament with lower or higher bending force, depending on with and without reaction,
This experiment was conducted to investigate the analgesic effects of compound treatment at two different doses (10 mg/kg and 30 mg/kg) in a diabetic peripheral neuropathic pain model of rats induced by streptozotocin (STZ).
Diabetes was induced by 0.5 ml injection of streptozotocin (60 mg/kg) dissolved in citrate buffer (pH=6) into the tail vein of the rat. Animals were placed under a red lamp before injection and locked in a restraint device for administration.
In a streptozotocin (STZ)-induced diabetic peripheral neuropathic pain rat model, diabetic peripheral neuropathy was induced between 14 and 24 days after injection of STZ through the tail blood vessel of the rat. Blood glucose levels (BGL) of all animals on day 3 of the test were used to determine whether diabetes was induced, and on day 14, animals showing signs of mechanical allodynia by von Frey test were tested for BGL on day 14 and 23 of the experiment (FIG. 1).
After the experiment, all animals were euthanized with CO2.
(§3) Each experimental group was compared with the negative control group by using one-way ANOVA and Tukey […] post-test (Prism® GraphPad).

[2] = system: taxol-induced peripheral neuropathy model (mechanical allodynia); experiment: von Frey test of mechanical allodynia in taxol-induced peripheral neuropathy rat model; format: in vivo, rat (Sprague-Dawley)
Protocol: as §1
as §2, with “reaction.” for “reaction,”
To induce peripheral neuropathy, 2 mg/kg of taxol—which is an anticancer agent commonly used for the treatment of solid cancers—was intraperitoneally (IP) administered at a dose of 0.5 ml/kg on days 1, 3, 5, 7 and 9. To confirm the induction of allodynia, von Frey test was used, and in the study only animals having […] or less of average pain threshold of hind paws were included.
On day 13 of the experiment, only animals—in which allodynia was verified by von Frey test—were selected as experimental groups, Test Compounds (10 mg/kg and 30 mg/kg) and vehicle as the negative control were orally administered 2 hours before the pain test on day 13 and day 14. Morphine (5 mg/kg) as the positive control was administered 30 minutes prior to the pain test by intraperitoneal administration on day 13 and day 14 of the experiment. After the experiment, all animals were euthanized with CO2.
as §3

`NC(=O)O[C@@H](Cn1ncnn1)c1ccccc1Cl` [Test Compound] was tested, and the “pain reduction compared to the negative control” value ([1]; 10 mg/kg, efficacy similar to 150 mg/kg of gabapentin) was ~75%, the “allodynia suppressive effect compared to vehicle” value ([1]; day 14, 10 mg/kg PO) was “a tendency of allodynia suppressive effect” and the “inhibition of allodynia, pre-treatment vs. post-treatment” value ([1]; day 14, 10 mg/kg PO) was “the induction of allodynia was significantly inhibited”. The “allodynia suppressive effect compared to vehicle” value ([1]; day 14, 30 mg/kg PO) was “a tendency of allodynia suppressive effect”, the “inhibition of allodynia, pre-treatment vs. post-treatment” value ([1]; day 14, 30 mg/kg PO) was “the induction of allodynia was significantly inhibited” and the “mean bending force (paw withdrawal threshold, von Frey)” value (shortened to “mean bending force”) ([1]; day 14, 2 hours after administration, 10 mg/kg PO, vehicle 34.50±6.61 g) was 46.09 ± 4.48 g. For the same compound, the “allodynia suppressive effect compared to vehicle” value ([1]; day 24, 10 mg/kg PO) was “significant allodynia suppressive effect”, the “inhibition of allodynia, pre-treatment vs. post-treatment” value ([1]; day 24, 10 mg/kg PO) was “the induction of allodynia was significantly inhibited” and the “allodynia suppressive effect compared to vehicle” value ([1]; day 24, 30 mg/kg PO) was “significant allodynia suppressive effect”. The “inhibition of allodynia, pre-treatment vs. post-treatment” value ([1]; day 24, 30 mg/kg PO) was “the induction of allodynia was significantly inhibited”, the “mean bending force” value ([1]; day 24, after administration, daily dosing from day 14, 10 mg/kg PO, vehicle 22.85±3.86 g) was 44.36 ± 3.63 g and the “bending force before administration” value ([1]; after daily dosing from day 14, 10 mg/kg PO) was 25.18 ± 2.96 g. The “bending force before administration” value ([1]; after daily dosing from day 14, 30 mg/kg PO) was 23.55 ± 2.52 g, the “inhibitory effect on the induction of allodynia compared to the vehicle-administration group” value ([2]; day 13, 10 mg/kg orally, 2 hours before the pain test) was “a tendency to inhibit the induction of allodynia” and the “inhibitory effect on the induction of allodynia compared to the vehicle-administration group” value ([2]; day 13, 30 mg/kg orally, 2 hours before the pain test) was “a significant inhibitory effect on the induction of allodynia”. For the same compound, the “inhibitory effect on the induction of allodynia compared to the vehicle-administration group” value ([2]; day 14, 10 mg/kg orally, 2 hours before the pain test) was “a tendency to inhibit the induction of allodynia” and the “inhibitory effect on the induction of allodynia compared to the vehicle-administration group” value ([2]; day 14, 30 mg/kg orally, 2 hours before the pain test) was “a significant inhibitory effect on the induction of allodynia”.
For `NCC1(CC(=O)O)CCCCC1` [gabapentin, reference compound], the “allodynia suppressive effect compared to vehicle” value ([1]; day 14, 150 mg/kg IP) was “no significant allodynia suppressive effect”, the “inhibition of allodynia, pre-treatment vs. post-treatment” value ([1]; day 14, 150 mg/kg IP) was “the induction of allodynia was significantly inhibited” and the “mean bending force” value ([1]; day 14, 2 hours after administration, 150 mg/kg IP, vehicle 34.50±6.61 g) was 51.85 ± 4.91 g. For the same compound, the “allodynia suppressive effect compared to vehicle” value ([1]; day 24, 150 mg/kg IP) was “significant allodynia suppressive effect”, the “inhibition of allodynia, pre-treatment vs. post-treatment” value ([1]; day 24, 150 mg/kg IP) was “the induction of allodynia was significantly inhibited” and the “mean bending force” value ([1]; day 24, after administration, daily dosing from day 14, 150 mg/kg IP, vehicle 22.85±3.86 g) was 45.30 ± 4.63 g. The “bending force before administration” value ([1]; after daily dosing from day 14, 150 mg/kg IP) was 25.50 ± 3.95 g.
In the case of `CN1CC[C@]23c4c5ccc(O)c4O[C@H]2[C@@H](O)C=C[C@H]3[C@H]1C5` [morphine, Morphine, reference compound], the “inhibitory effect on the induction of allodynia compared to the vehicle-administration group” value ([2]; day 13, 5 mg/kg IP, 30 minutes prior to the pain test) is reported as “a significant inhibitory effect on the induction of allodynia” and the “inhibitory effect on the induction of allodynia compared to the vehicle-administration group” value ([2]; day 14, 5 mg/kg IP, 30 minutes prior to the pain test) is reported as “a significant inhibitory effect on the induction of allodynia”.
